Patent US20250326748A1, “COMPOUNDS AND METHODS FOR MODULATING SPLICING” (REMIX THERAPEUTICS INC., priority 2022, published 2025)
Where a name gives a salt, the structure may show the parent alone. Read-outs that look alike come from different tables or passages of the source.

Assays:
[1] = system: MYB mRNA; test: Splicing RT-qPCR assay, MYB canonical (CJ) and alternative (AJ) junction mRNA; assay type: cell-based, human; conditions: Homo sapiens; for IC50: canonical junction mRNA; for AC50: alternative junction mRNA, read-out: MYB AJ (AC50, increase in AJ mRNA)
Summary of the method: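 Read-out: one-step RT-qPCR on crude lysates measuring exon-exon junction isoforms, CJ for the canonical transcript and AJ for compound-induced exon inclusion. Normalization used PPIA for adherent A673 and GAPDH or GUSB for K562. Cells received 11 doses, 3-fold apart, top 10 uM, for 24 h.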

[2] = system: Target C mRNA; test: Splicing RT-qPCR panel, Target C canonical junction (CJ) mRNA; assay type: cell-based, human; conditions: Homo sapiens, read-out: Target C CJ (decrease in CJ mRNA levels, IC50)
Summary of the method: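 A673 cells (DMEM, 10% FBS) or K562 cells (IMDM, 10% FBS) treated 24 h at 37 °C with an 11-point 3-fold dilution, top 10 uM, DMSO ≤0.25%. Canonical-junction mRNA quantified in lysates by RT-qPCR, normalised to GAPDH, GUSB or PPIA and to DMSO (2^−ΔΔCt), then converted to % response.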

[3] = qPCR panel, read-out: MYB CJ (decrease in CJ mRNA levels, IC50)
[4] = RT-qPCR, A673 or K562 cells, 24 hours treatment
[5] = RT-qPCR, A673 or K562 cells, 24 hours treatment, read-out: MYB CJ (IC50, decrease in CJ mRNA)

| SMILES | IC50 [1, 3] [nM] | AC50 [1, 4] [nM] | IC50 [1, 5] [nM] | IC50 [2] [nM] |
| --- | --- | --- | --- | --- |
| CN(C)[C@@H]1CCN(c2cnc3nc(-c4cc5cn(C)nc5c(F)c4O)cc(Cl)c3c2)C1 [Compound 220] | < 100 | < 100 | < 100 | 100 to 1000 |
| CNC1CCN(c2cnc3nc(-c4cc(F)c5nc(C)cn5c4)ccc3c2)C1 (stereo not drawn) [Compound 100, 1-(7-{8-fluoro-2-methylimidazo[1,2-a]pyridin-6-yl}-1,8-naphthyridin-3-yl)-N-methylpyrrolidin-3-amine] | < 100 | < 100 | < 100 | 100 to 1000 |
| Cc1cn2cc(-c3cnc4nc(C5CCNCC5)ccc4c3)cc(C)c2n1 [Compound 201] | < 100 | > 10000 | > 10000 | < 100 |
| Cn1cc2cc(-c3cc(Cl)c4cc(N5CCNCC5)cnc4n3)c(O)c(F)c2n1 [Compound 155, 5-[4-chloro-6-(piperazin-1-yl)-1,8-naphthyridin-2-yl]-7-fluoro-2-methylindazol-6-ol] | < 100 | < 100 | < 100 | 100 to 1000 |
| Cn1cc2cc(-c3ccc4cc(N5CC[C@@H](NC(C)(C)C)C5)cnc4n3)c(O)cc2n1 [Compound 199] | 1000 to 10000 | 1000 to 10000 | 1000 to 10000 | 1000 to 10000 |
| Cc1c(O)c(-c2ncc3cc(N4C[C@@H](C)N[C@@H](C)C4)cnc3n2)cc2cn(C)nc12 [Compound 214] | 100 to 1000 | 100 to 1000 | 100 to 1000 | 1000 to 10000 |
| Cc1c(O)c(-c2cc(-c3ccccn3)c3cc(N4C[C@@H](C)N[C@@H](C)C4)cnc3n2)cc2cn(C)nc12 [Compound 217, 5-{6-[(3R,5S)-3,5-dimethylpiperazin-1-yl]-4-(pyridin-2-yl)-1,8-naphthyridin-2-yl}-2,7-dimethylindazol-6-ol] | > 10000 | > 10000 | > 10000 | > 10000 |
| CN[C@@H]1CCN(c2cnc3nc(-c4cc5cn(C)nc5c(C)c4O)nc(OC)c3c2)C1 [Compound 211, 5-{4-methoxy-6-[(3R)-3-(methylamino)pyrrolidin-1-yl]pyrido[2,3-d]pyrimidin-2-yl}-2,7-dimethylindazol-6-ol] | < 100 | < 100 | < 100 | 100 to 1000 |
| CN(C)[C@H]1CCN(c2cnc3nc(-c4cc5cn(C)nc5c(F)c4O)cc(Cl)c3c2)C1 [Compound 221] | < 100 | < 100 | < 100 | 100 to 1000 |
| CNC1CCN(c2cnc3nc(-c4cc5cn(C)nc5c(C)c4O)cc(OC)c3n2)C1 (stereo not drawn) [Compound 194, 5-{8-methoxy-2-[3-(methylamino)360pyrrolidine-1-yl]pyrido[2,3-b]pyrazin-6-yl}-2,7-dimethylindazol-6-ol] | 1000 to 10000 | 1000 to 10000 | 1000 to 10000 | > 10000 |
| Cc1cn2nc(-c3ccc4cc(N(C)C5CCNCC5)cnc4n3)cc(C)c2n1 [Compound 205, 7-{2,8-dimethylimidazo[1,2-b]pyridazin-6-yl}-N-methyl-N-(piperidin-4-yl)-1,8-naphthyridin-3-amine] | 1000 to 10000 | 1000 to 10000 | 1000 to 10000 | > 10000 |
| C[C@@H]1CN(c2cnc3nc(-c4cc5cn(C)nc5cc4O)cc(Cl)c3c2)C[C@H](C)N1 [Compound 208] | < 100 | < 100 | < 100 | 1000 to 10000 |
| Cc1c(O)c(-c2cc(Cl)c3cc(N4CCNCC4)cnc3n2)cc2cn(C)nc12 [Compound 154, 5-[4-chloro-6-(piperazin-1-yl)-1,8-naphthyridin-2-yl]-2,7-dimethylindazol-6-ol] | < 100 | < 100 | < 100 | 1000 to 10000 |
| C[C@@H]1CN(c2cnc3nc(-c4cc5cn(C)nc5c(F)c4O)cc(C#N)c3c2)C[C@H](C)N1 [Compound 266, 6-[(3R,5S)-3,5-dimethylpiperazin-1-yl]-2-(7-fluoro-6-hydroxy-2-methylindazol-5-yl)-1,8-naphthyridine-4-carbonitrile hydrochloride] | < 100 | 100 to 1000 | < 100 | 1000 to 10000 |
| CNC1CCN(c2cnc3nc(-c4cc5cn(C)nc5cc4O)cc(Cl)c3c2)C1 (stereo not drawn) [Compound 213, 5-{4-chloro-6-[3-(methylamino)370pyrrolidine-1-yl]-1,8-naphthyridin-2-yl}-2-methylindazol-6-ol] | < 100 | < 100 | < 100 | 1000 to 10000 |
